Drawing on US20140248263A1, “BISPHENOL COMPOUNDS AND METHODS FOR THEIR USE” (THE UNIVERSITY OF BRITISH COLUMBIA, priority 2011, published 2014), this text covers IC50 for eleven compounds.

The term IC50 denotes the concentration needed to halve the response being measured.

Each structure is given as a SMILES string.

The target of this assay is T1, androgen receptor (AR) (Homo sapiens, UniProt P10275, T878A).
T1 construct: LNCaP cells express endogenous AR; endogenous in cells; host or cells: LNCaP
T1 sequence (P10275 1-920 T878A): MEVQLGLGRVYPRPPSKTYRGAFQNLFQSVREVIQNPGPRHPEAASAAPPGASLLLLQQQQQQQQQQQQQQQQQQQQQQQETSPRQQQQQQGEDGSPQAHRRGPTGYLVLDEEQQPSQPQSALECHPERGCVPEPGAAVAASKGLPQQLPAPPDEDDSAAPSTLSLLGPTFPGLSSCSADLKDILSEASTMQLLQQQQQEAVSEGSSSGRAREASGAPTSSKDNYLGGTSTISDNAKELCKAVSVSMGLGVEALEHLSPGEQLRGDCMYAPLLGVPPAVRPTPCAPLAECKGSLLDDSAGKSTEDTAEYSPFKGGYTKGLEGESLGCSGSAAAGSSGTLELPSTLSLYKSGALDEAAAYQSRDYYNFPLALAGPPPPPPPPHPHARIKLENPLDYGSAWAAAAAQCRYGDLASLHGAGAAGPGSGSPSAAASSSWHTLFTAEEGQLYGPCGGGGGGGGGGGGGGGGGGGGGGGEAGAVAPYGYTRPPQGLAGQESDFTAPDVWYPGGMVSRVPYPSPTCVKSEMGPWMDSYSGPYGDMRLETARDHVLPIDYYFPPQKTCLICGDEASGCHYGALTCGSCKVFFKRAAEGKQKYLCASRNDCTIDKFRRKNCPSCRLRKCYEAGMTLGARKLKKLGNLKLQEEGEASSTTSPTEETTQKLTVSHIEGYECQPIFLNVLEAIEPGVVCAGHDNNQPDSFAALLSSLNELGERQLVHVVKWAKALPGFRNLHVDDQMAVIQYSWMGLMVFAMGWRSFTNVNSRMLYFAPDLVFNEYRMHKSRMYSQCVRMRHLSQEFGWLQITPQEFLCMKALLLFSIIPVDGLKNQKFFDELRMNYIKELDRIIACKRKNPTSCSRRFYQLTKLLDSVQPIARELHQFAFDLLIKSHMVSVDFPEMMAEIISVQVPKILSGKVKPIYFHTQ
Description: PSA (6.1 kb)-luciferase reporter assay in LNCaP cells induced with R1881. Format: cell-based. To be noted: LNCaP cells transfected with PSA (6.1 kb)-luciferase; 1 h pre-treatment, R1881 1 nM, 48 h; relative luciferase activity. The source says:
LNCaP cells were employed initially for all experiments because they are well-differentiated human prostate cancer cells in which ligand-independent activation of the AR by FSK has been characterized (Nazareth et al 1996 J. Biol. Chem. 271, 19900-19907; and Sadar 1999 J. Biol. Chem. 274, 7777-7783). LNCaP cells express endogenous AR and secrete prostate-specific antigen (PSA) (Horoszewicz et al 1983Cancer Res. 43, 1809-1818). LNCaP cells can be grown either as monolayers in cell culture or as tumors in the well-characterized xenograft model that progresses to androgen independence in castrated hosts (Sato et al 1996 J. Steroid Biochem. Mol. Biol. 58, 139-146; Gleave et al 1991 Cancer Res. 51, 3753-3761; Sato et al 1997 Cancer Res. 57, 1584-1589; and Sadar et al 2002 Mol. Cancer. Ther. 1(8), 629-637). R1881 was employed since it is stable and avoids problems associated with the labile physiological ligand dihydrotestosterone (DHT). Reporter specificity may be determined using several alternative reporter gene constructs. Some well characterized ARE-driven reporter gene constructs that have been used extensively are the PSA (6.1 kb) enhance/promoter which contains several AREs and is highly inducible by androgens as well as by FSK (Ueda et al 2002 A J. Biol. Chem. 277, 7076-7085) and the ARR3-thymidine kinase (tk)-luciferase, which is an artificial reporter construct that contains three tandem repeats of the rat probasin ARE1 and ARE2 regions upstream of a luciferase reporter (Snoek et al 1996 J. Steroid Biochem. Mol. Biol. 59, 243-250).
LNCaP cells were transiently cotransfected with PSA (6.1 kb)-luciferase (0.25 μg/well) in 24-well plates for 24 h prior to pre-treatment with compounds for 1 hour before the addition of synthetic androgen, R1881 (1 nM), to induce PSA production or vehicle. The total amount of plasmid DNA transfected was normalized to 0.75 μg/well by the addition of the empty vector. After 48 h of incubation with R1881, the cells were harvested, and relative luciferase activity was determined. Test compounds were added to the cells at various concentrations and activity for each treatment was normalized to the predicted maximal activity induction (in the absence of test compounds, vehicle only). Plotting of sigmoidal curves (Boltzmann Function) and IC50 calculations were done using OriginPro 8.1 Sofware (Northampton, Mass., USA). Furthermore, toxicity was assessed by both microscopic examination and reduction of protein levels. Solubility was assessed both macroscopically (cloudy media) and microscopically (formation of granules or crystals).
Turning to `C#CCOCC(O)COc1ccc(C(C)(C)c2ccc(OCC(O)CCl)cc2)cc1` (centres unmarked) [Compound 3, 1-chloro-3-(4-(2-(4-(2-hydroxy-3-(prop-2-ynyloxy)propoxy)phenyl)propan-2-YL)phenoxy)propan-2-ol], the IC50 came to 1.6 µM.
`CC(C)OCC(O)COc1ccc(C(C)(C)c2ccc(OCC(O)COC(C)C)cc2)cc1` (centres unmarked) [Compound 31, 3,3′-(4,4′-(propane-2,2-diyl)bis(4,1-phenylene))bis(oxy)bis(1-isopropoxypropan-2-ol)]: the 50% inhibitory concentration (IC50) amounted to 4.5 µM.
The same measure for `C#CCOC[C@@H](O)COc1ccc(C(C)(C)c2ccc(OC[C@H](O)CCl)cc2)cc1` [Compound 16]: 6.94 µM; for `C#CCOC[C@@H](O)COc1ccc(C(C)(C)c2ccc(OC[C@@H](O)CCl)cc2)cc1` [Compound 18]: 1.3 µM; for `C#CCOC[C@H](O)COc1ccc(C(C)(C)c2ccc(OC[C@@H](O)CCl)cc2)cc1` [Compound 10, (R)-1-chloro-3-(4-(2-(4-((S)-2-hydroxy-3-(prop-2-ynyloxy)propoxy)phenyl)propan-2-yl)phenoxy)propan-2-ol]: 2.2 µM.
Next, `CC(C)OCC(O)COc1ccc(C(C)(C)c2ccc(OCC(O)CCl)cc2)cc1` (centres unmarked) [Compound 32, 1-chloro-3-(4-(2-(4-(2-hydroxy-3-isopropdxypropoxy)phenyl)propan-2-yl)phenoxy)propan-2-ol]: 4.5 µM; `C#CCOCC(O)COc1ccc(C(C)(C)c2ccc(OCC(O)CO)cc2)cc1` (centres unmarked) [Compound 5, 3-(4-(2-(4-(2-hydroxy-3-(prop-2-ynyloxy)propoxy)phenyl)propan-2-yl)phenoxy)propane-1,2-diol]: 4.5 µM; `CCCCOCC(O)COc1ccc(C(C)(C)c2ccc(OCC(O)COCCCC)cc2)cc1` (centres unmarked) [Compound 33, 3,3′-(4,4′-(propane-2,2-diyl)bis(4,1-phenylene))bis(oxy)bis(1-butoxypropan-2-ol)]: 0.7 µM.
The same measure for `C#CCOC[C@H](O)COc1ccc(C(C)(C)c2ccc(OC[C@H](O)CCl)cc2)cc1` [Compound 12]: 2.2 µM; for `CCCCOCC(O)COc1ccc(C(C)(C)c2ccc(OCC(O)CCl)cc2)cc1` (centres unmarked) [Compound 34, 1-butoxy-3-(4-(2-(4-(3-chloro-2-hydroxypropoxy)phenyl)propan-2-yl)phenoxy)propan-2-ol]: 1.74 µM.
On to `COCC(O)COc1ccc(C(C)(C)c2ccc(OCC(O)CCl)cc2)cc1` (centres unmarked) [Compound 30, 1-chloro-3-(4-(2-(4-(2-hydroxy-3-methoxypropoxy)phenyl)propan-2-yl)phenoxy)propan-2-ol], for which the IC50 was found to be 11.5 µM.
